Test results reported in US8779004B2, “Stable emulsion formulations” (Amgen, Inc., priority 2006, dated 2014).
Marks after values point to notes of the source that are not given here.

What was measured:
Type in all cases: physicochemical
[1] = pH and particle size of crude cinacalcet emulsions with different oils and phospholipids
Method: Table 4 illustrates the effect of different oils and phospholipids on pH and particle size of crude emulsions prepared for cinacalcet. The particle size distribution of the droplets was measured using light diffraction techniques after dilution of the emulsion in water. The particle size is represented by D(4,3) which is the volume corrected mean of the particles (units). As used herein, SBO—soybean oil (long chain triglycerides); MCT—medium chain triglycerides; STG—structured triglycerides (including PEGylated oils)
Coarse prototype emulsion formulations were prepared at a batch size of 10 mLs by an Ultraturrax T25 S1 Janke and Kunkel blade homogenizer equipped with a 10 mm rotostator, followed by sonication from a Vibracell Ultrasonicator with a titanium microtip probe. Batches at a 40 mL size were prepared in a similar manner, with the exception of the ultrasonicator having a ¾″ titanium probe tip.
Coarse prototype emulsions at a batch size of 10-40 mLs were prepared by mixing the oil with lecithin by a blade mixer at 60° C. protected by a nitrogen headspace. Cinacalcet was added and mixed well, followed by the addition of the aqueous phase containing glycerin and buffer until a homogenous mixture was made. A sonicator probe was used to further process the emulsion premix while maintaining the nitrogen headspace. Coarse emulsions prepared by sonication were centrifuged at 3K RPM to remove gross particulates on a Dupont Sorval centrifuge, and dispensed by removal of the top contents of the emulsion for evaluation.

[2] = Zeta potential titration of emulsions (droplet charge vs pH); details: cinacalcet/1% EYP/10% SBO emulsion
Method: Panel A, titration results of 1% EYP/10% SBO in 1 mM dibasic phosphate. Panel B, titration results of cinacalcet/1% EYP/10% SBO in 1 mM dibasic phosphate. Other components of the emulsions include 10% soybean oil, 1% egg lecithin, 2.25% glycerin and water. Panel C, titration results for Compound A. Emulsion composition: SBO 10%, Lecithin 2% at pH 7. Concentration of Compound A was 5 mg/mL for formulation #1 and 1 mg/mL for formulation #2.
The zeta potential measurements were made on a Malvern Zetasizer 4 laser-scattering particle electrophoretic analyzer that measures the electrophoretic mobility and zeta potential distribution. Samples were prepared for the zeta potential titration by diluting the emulsion approximately 2500 fold in 1 mM dibasic phosphate pH 9 and titrating the solution with 100 mM phosphoric acid in 0.5 pH unit increments. […] Theoretically, the emulsions are stabilized by this charge, which prevents the droplets from coalescing. […] In contrast, the cinacalcet emulsions achieve charge neutrality in the range of pH 7-7.5.

[3] = Solubility of calcimimetics in oil phases (RP-HPLC); details: oil or lipid, thermodynamic from solid
Method: The solubility measurements of the compounds were prepared by the addition of 1 g of drug substance to two milliliters of oil into a Wheaton 5 mL vial. The headspace was sparged with nitrogen, and enclosed with a West 4405/50 gray Teflon coated stopper and manually sealed by an aluminum overseal. The preparations were repeated again with the oils containing either purified egg or soy lecithin. All labeled vials were shaken at room temperature for eighteen hours on a platform shaker. After eighteen hours, the samples were diluted in mobile phase, and analyzed by the RP-HPLC method. Table 2 summarizes solubility results (expressed in mg/mL) of cinacalcet in various oil phases.

[4] = pH and particle size of crude cinacalcet emulsions with different oils and phospholipids; design: unit not given here; details: emulsion; STG 20%; 1% Purified Soy Lecithin; after a single autoclaving cycle
[5] = crude emulsion, MCT 5%, 1% Purified Egg Lecithin
[6] = crude emulsion, MCT 5%, 1% Purified Soy Lecithin
[7] = crude emulsion, MCT 5%, 2% Purified Egg Lecithin
[8] = crude emulsion, MCT 5%, % Purified Soy Lecithin
[9] = crude emulsion, MCT 10%, 1% Purified Egg Lecithin
[10] = crude emulsion, MCT 10%, 1% Purified Soy Lecithin
[11] = crude emulsion, MCT 10%, 2% Purified Egg Lecithin
[12] = crude emulsion, MCT 10%, % Purified Soy Lecithin
[13] = crude emulsion, MCT 20%, 1% Purified Egg Lecithin
[14] = crude emulsion, MCT 20%, 1% Purified Soy Lecithin
[15] = crude emulsion, MCT 20%, 2% Purified Egg Lecithin
[16] = crude emulsion, MCT 20%, % Purified Soy Lecithin
[17] = crude emulsion, SBO 5%, 1% Purified Egg Lecithin
[18] = crude emulsion, SBO 5%, 1% Purified Soy Lecithin
[19] = crude emulsion, SBO 5%, 2% Purified Egg Lecithin
[20] = crude emulsion, SBO 5%, % Purified Soy Lecithin
[21] = crude emulsion, SBO 10%, 1% Purified Egg Lecithin
[22] = crude emulsion, SBO 10%, 1% Purified Soy Lecithin
[23] = crude emulsion, SBO 10%, 2% Purified Egg Lecithin
[24] = crude emulsion, SBO 10%, % Purified Soy Lecithin
[25] = crude emulsion, SBO 20%, 1% Purified Egg Lecithin
[26] = crude emulsion, SBO 20%, 1% Purified Soy Lecithin
[27] = crude emulsion, SBO 20%, 2% Purified Egg Lecithin
[28] = crude emulsion, SBO 20%, % Purified Soy Lecithin
[29] = crude emulsion, STG 5%, 1% Purified Egg Lecithin
[30] = crude emulsion, STG 5%, 2% Purified Egg Lecithin
[31] = crude emulsion, STG 10%, 1% Purified Egg Lecithin
[32] = crude emulsion, STG 10%, 2% Purified Egg Lecithin
[33] = crude emulsion, STG 20%, 1% Purified Egg Lecithin
[34] = crude emulsion, STG 20%, 2% Purified Egg Lecithin

SMILES: C[C@@H](NCCCc1cccc(C(F)(F)F)c1)c1cccc2ccccc12 [Cinacalcet, N-(1-(R)-(1-naphthyl)ethyl]-3-[3-(trifluoromethyl)phenyl]-1-aminopropane]
- D(4, 3) [1, 5]: 0.39 µm
- pH [1, 5]: 8.58
- D(4, 3) [1, 6]: 0.36 µm
- pH [1, 6]: 9.12
- D(4, 3) [1, 7]: 0.35 µm
- pH [1, 7]: 8.39
- D(4, 3) [1, 8]: 0.32 µm
- PH [1, 8]: 8.97
- D(4, 3) [1, 9]: 0.53 µm
- pH [1, 9]: 8.61
- D(4, 3) [1, 10]: 0.21 µm
- pH [1, 10]: 9.09
- D(4, 3) [1, 11]: 0.4 µm
- pH [1, 11]: 8.29
- D(4, 3) [1, 12]: 0.44 µm
- PH [1, 12]: 8.99
- D(4, 3) [1, 13]: 0.57 µm
- pH [1, 13]: 8.41
- D(4, 3) [1, 14]: 0.47 µm
- pH [1, 14]: 8.81
- D(4, 3) [1, 15]: 0.42 µm
- pH [1, 15]: 8.23
- D(4, 3) [1, 16]: 0.31 µm
- PH [1, 16]: 8.95
- D(4, 3) [1, 17]: 1.07 µm
- pH [1, 17]: 8.81
- D(4, 3) [1, 18]: 1.3 µm
- pH [1, 18]: 8.94
- D(4, 3) [1, 19]: 0.77 µm
- pH [1, 19]: 8.53
- D(4, 3) [1, 20]: 0.81 µm
- PH [1, 20]: 8.99
- D(4, 3) [1, 21]: 0.65 µm
- pH [1, 21]: 8.80
- D(4, 3) [1, 22]: 0.98 µm
- pH [1, 22]: 8.86
- D(4, 3) [1, 23]: 0.68 µm
- pH [1, 23]: 8.46
- D(4, 3) [1, 24]: 0.4 µm
- PH [1, 24]: 8.91
- D(4, 3) [1, 25]: 1.42 µm
- pH [1, 25]: 8.62
- D(4, 3) [1, 26]: 1.4 µm
- pH [1, 26]: 8.73
- D(4, 3) [1, 27]: 1.06 µm
- pH [1, 27]: 8.39
- D(4, 3) [1, 28]: 0.49 µm
- PH [1, 28]: 8.82
- D(4, 3) [1, 29]: 0.72 µm
- pH [1, 29]: 8.55
- pH ([1]; crude emulsion, STG 5%, 1% Purified Soy Lecithin): 9.09
- D(4, 3) [1, 30]: 0.52 µm
- pH [1, 30]: 8.46
- PH ([1]; crude emulsion, STG 5%, % Purified Soy Lecithin): 9.04
- D(4, 3) [1, 31]: 1.23 µm
- pH [1, 31]: 8.71
- pH ([1]; crude emulsion, STG 10%, 1% Purified Soy Lecithin): 9.00
- D(4, 3) [1, 32]: 0.81 µm
- pH [1, 32]: 8.37
- PH ([1]; crude emulsion, STG 10%, % Purified Soy Lecithin): 9.01
- D(4, 3) [1, 33]: 0.84 µm
- pH [1, 33]: 8.52
- pH ([1]; crude emulsion, STG 20%, 1% Purified Soy Lecithin): 8.99
- D(4, 3) [1, 34]: 1.18 µm
- pH [1, 34]: 8.28
- PH ([1]; crude emulsion, STG 20%, % Purified Soy Lecithin): 9.07
- D(4, 3) ([1]; emulsion, STG 5%, 1% Purified Soy Lecithin, after a single autoclaving cycle): 0.40^a
- D(4, 3) ([1]; emulsion, STG 5%, % Purified Soy Lecithin, after a single autoclaving cycle): 0.34^a
- D(4, 3) ([1]; emulsion, STG 10%, 1% Purified Soy Lecithin, after a single autoclaving cycle): 0.73^a
- D(4, 3) ([1]; emulsion, STG 10%, % Purified Soy Lecithin, after a single autoclaving cycle): 0.41^a
- D(4, 3) ([1]; emulsion, STG 20%, % Purified Soy Lecithin, after a single autoclaving cycle): 0.46^a
- droplet charge of emulsion ([2]; pH of about 9, 1 mM dibasic phosphate): net negative charge
- pH range in which emulsion achieves charge neutrality ([2]; titration in 1 mM dibasic phosphate): 7-7.5
- solubility at 18 h ([3]; Long Chain Triglycerides (oil phase) with egg lecithin, Long Chain Triglycerides, Egg lecithin): > 362 mg/mL
- solubility at 18 h ([3]; Long Chain Triglycerides (oil phase) with soy lecithin, Long Chain Triglycerides, Soy lecithin): > 304 mg/mL
- solubility at 18 h ([3]; Long Chain Triglycerides (oil phase), Long Chain Triglycerides, no lecithin): > 340 mg/mL
- solubility at 18 h ([3]; Medium Chain Triglycerides (oil phase) with egg lecithin, Medium Chain Triglycerides, Egg lecithin): > 349 mg/mL
- solubility at 18 h ([3]; Medium Chain Triglycerides (oil phase) with soy lecithin, Medium Chain Triglycerides, Soy lecithin): > 327 mg/mL
- solubility at 18 h ([3]; Medium Chain Triglycerides (oil phase), Medium Chain Triglycerides, no lecithin): > 341 mg/mL
- solubility at 18 h ([3]; Structured Triglycerides (oil phase) with egg lecithin, Structured Triglycerides, Egg lecithin): > 339 mg/mL
- solubility at 18 h ([3]; Structured Triglycerides (oil phase) with soy lecithin, Structured Triglycerides, Soy lecithin): > 317 mg/mL
- solubility at 18 h ([3]; Structured Triglycerides (oil phase), Structured Triglycerides, no lecithin): > 368 mg/mL
- D(4, 3) [4]: 0.94^a
